≈ marks a conversion by molar mass, not a printed value. Calls of active or inactive are those of the source. The rule behind the calls is not given here.
Columns and labels:
Type in all cases: functional, cell-based
THP-1 [1] = experiment: Cytotoxicity against human THP1 cells assessed as reduction in cell viability at 100 ug/ml after 24 hrs by MTT assay
[2] = Cytotoxicity against human U937 cells assessed as reduction in cell viability after 24 hrs by MTT assay; conditions: U-937, 24 h
B16-F10 [3] = experiment: Cytotoxicity against mouse B16F10 cells assessed as reduction in cell viability at 100 ug/ml after 24 hrs by MTT assay
HL-60 [4] = experiment: Cytotoxicity against human HL60 cells assessed as reduction in cell viability after 24 hrs by MTT assay; conditions: HL-60, 24 h
HL-60 [5] = experiment: Cytotoxicity against human HL60 cells assessed as reduction in cell viability at 100 ug/ml after 24 hrs by MTT assay
U-937 = experiment: Cytotoxicity against human U937 cells assessed as reduction in cell viability at 100 ug/ml after 24 hrs by MTT assay
THP-1 [6] = experiment: Cytotoxicity against human THP1 cells assessed as reduction in cell viability after 24 hrs by MTT assay; conditions: THP-1, 24 h
B16-F10 [7] = experiment: Cytotoxicity against mouse B16F10 cells assessed as reduction in cell viability after 24 hrs by MTT assay; conditions: B16-F10, 24 h

| Structure (SMILES) | Activity (THP-1 [1]) | IC50 [2] | Activity (B16-F10 [3]) | IC50 (HL-60 [4]) | Activity (HL-60 [5]) | Activity (U-937) | IC50 (THP-1 [6]) | IC50 (B16-F10 [7]) |
| --- | --- | --- | --- | --- | --- | --- | --- | --- |
| Nc1nn(Cc2cn(CCC(F)(F)C(F)(F)C(F)(F)C(F)(F)C(F)(F)C(F)(F)F)nn2)c2nc(-c3ccccc3)cc(C(F)(F)F)c12 | inactive | 98.2 µg/mL (≈ 139 µM) | inactive | 97.6 µg/mL (≈ 138 µM) | – | – | – | – |
| Nc1nn(Cc2cn(-c3cccc(C(F)(F)F)c3)nn2)c2nc(-c3ccccc3)cc(C(F)(F)F)c12 | inactive | – | inactive | – | inactive | inactive | – | – |
| COc1ccc(-n2cc(Cn3nc(N)c4c(C(F)(F)F)cc(-c5ccccc5)nc43)nn2)cc1 | inactive | – | inactive | – | inactive | inactive | – | – |
| Nc1nn(Cc2cn(-c3ccccc3)nn2)c2nc(-c3ccccc3)cc(C(F)(F)F)c12 | inactive | – | inactive | – | inactive | inactive | – | – |
| Nc1nn(Cc2cn(-c3ccc([N+](=O)[O-])cc3)nn2)c2nc(-c3ccccc3)cc(C(F)(F)F)c12 | inactive | 98.8 µg/mL (≈ 206 µM) | inactive | – | inactive | – | – | – |
| CCCCCCCCn1cc(Cn2nc(N)c3c(C(F)(F)F)cc(-c4ccccc4)nc32)nn1 | inactive | – | inactive | – | inactive | inactive | – | – |
| Cc1ccc(NC(=O)Cn2cc(Cn3nc(N)c4c(C(F)(F)F)cc(-c5ccccc5)nc43)nn2)cc1 | – | 65.3 µg/mL (≈ 129 µM) | inactive | – | inactive | – | 41.5 µg/mL (≈ 81.9 µM) | – |
| Nc1nn(Cc2cn(-c3cccc(Cl)c3)nn2)c2nc(-c3ccccc3)cc(C(F)(F)F)c12 | inactive | – | inactive | – | inactive | – | – | – |
| CCCCn1cc(Cn2nc(N)c3c(C(F)(F)F)cc(-c4ccccc4)nc32)nn1 | – | – | inactive | 36.7 µg/mL (≈ 88.4 µM) | – | inactive | 46.1 µg/mL (≈ 111 µM) | – |
| COc1cc([C@@H]2c3cc4c(cc3[C@@H](O[C@@H]3O[C@@H]5CO[C@@H](C)O[C@H]5[C@H](O)[C@H]3O)[C@H]3COC(=O)[C@H]23)OCO4)cc(OC)c1O [ETOPOSIDE] | – | 6.7 µg/mL (≈ 11.4 µM) | – | 2.13 µg/mL (≈ 3.62 µM) | – | – | 6.34 µg/mL (≈ 10.8 µM) | 3.8 µg/mL (≈ 6.46 µM) |
| Nc1nn(Cc2cn(CC(=O)NC3CCCCC3)nn2)c2nc(-c3ccccc3)cc(C(F)(F)F)c12 | – | 89 µg/mL (≈ 179 µM) | – | 42.9 µg/mL (≈ 86.2 µM) | – | – | 64.8 µg/mL (≈ 130 µM) | 99.1 µg/mL (≈ 199 µM) |
| Nc1nn(Cc2cn(-c3ccc(F)cc3)nn2)c2nc(-c3ccccc3)cc(C(F)(F)F)c12 | inactive | – | inactive | – | inactive | inactive | – | – |
| COc1ccc(NC(=O)Cn2cc(Cn3nc(N)c4c(C(F)(F)F)cc(-c5ccccc5)nc43)nn2)cc1 | – | – | inactive | – | inactive | inactive | 56.7 µg/mL (≈ 109 µM) | – |
| Nc1nn(Cc2cn(CC(=O)Nc3cccc(F)c3)nn2)c2nc(-c3ccccc3)cc(C(F)(F)F)c12 | – | 43.5 µg/mL (≈ 85.3 µM) | inactive | 63.9 µg/mL (≈ 125 µM) | – | – | 99.5 µg/mL (≈ 195 µM) | – |
| Nc1nn(Cc2cn(CC(=O)Nc3c(F)cccc3F)nn2)c2nc(-c3ccccc3)cc(C(F)(F)F)c12 | – | 30.6 µg/mL (≈ 58 µM) | – | 32.8 µg/mL (≈ 62 µM) | – | – | 43.3 µg/mL (≈ 81.9 µM) | 41.6 µg/mL (≈ 78.7 µM) |
| Nc1nn(Cc2cn(CC(=O)Nc3ccccc3)nn2)c2nc(-c3ccccc3)cc(C(F)(F)F)c12 | – | – | inactive | 96.3 µg/mL (≈ 196 µM) | – | inactive | 54.6 µg/mL (≈ 111 µM) | – |
| Nc1nn(Cc2cn(-c3ccc(Br)c(F)c3)nn2)c2nc(-c3ccccc3)cc(C(F)(F)F)c12 | inactive | – | inactive | – | inactive | inactive | – | – |
| Nc1nn(Cc2cn(CC(=O)Nc3ccc(F)cc3Br)nn2)c2nc(-c3ccccc3)cc(C(F)(F)F)c12 | – | 98.3 µg/mL (≈ 167 µM) | – | 63.6 µg/mL (≈ 108 µM) | – | – | 65.6 µg/mL (≈ 111 µM) | 98 µg/mL (≈ 166 µM) |
| Cc1c(Br)cccc1-n1cc(Cn2nc(N)c3c(C(F)(F)F)cc(-c4ccccc4)nc32)nn1 | inactive | 97.2 µg/mL (≈ 184 µM) | inactive | – | inactive | – | – | – |
| Nc1nn(Cc2cn(CC(=O)Nc3ccccc3Br)nn2)c2nc(-c3ccccc3)cc(C(F)(F)F)c12 | – | – | inactive | 27.2 µg/mL (≈ 47.6 µM) | – | inactive | 95.3 µg/mL (≈ 167 µM) | – |
| CCCCCCCCCCn1cc(Cn2nc(N)c3c(C(F)(F)F)cc(-c4ccccc4)nc32)nn1 | – | 27.1 µg/mL (≈ 54.3 µM) | – | 29.9 µg/mL (≈ 59.8 µM) | – | – | 48.7 µg/mL (≈ 97.4 µM) | 84.9 µg/mL (≈ 170 µM) |
| CCCCCCn1cc(Cn2nc(N)c3c(C(F)(F)F)cc(-c4ccccc4)nc32)nn1 | inactive | – | inactive | – | inactive | inactive | – | – |
| Nc1nn(Cc2cn(CC(=O)Nc3ccc(F)cc3)nn2)c2nc(-c3ccccc3)cc(C(F)(F)F)c12 | – | – | inactive | 44.8 µg/mL (≈ 87.7 µM) | – | inactive | 49.5 µg/mL (≈ 97.1 µM) | – |
| Nc1nn(Cc2cn(CCC(F)(F)C(F)(F)C(F)(F)C(F)(F)C(F)(F)C(F)(F)C(F)(F)C(F)(F)F)nn2)c2nc(-c3ccccc3)cc(C(F)(F)F)c12 | inactive | – | inactive | – | inactive | inactive | – | – |
| Nc1nn(Cc2cn(CC(=O)Nc3cccc(Cl)c3)nn2)c2nc(-c3ccccc3)cc(C(F)(F)F)c12 | – | – | inactive | – | inactive | inactive | 37 µg/mL (≈ 70.3 µM) | – |
| Nc1nn(Cc2cn(-c3ccc(F)c(Cl)c3)nn2)c2nc(-c3ccccc3)cc(C(F)(F)F)c12 | inactive | 99.1 µg/mL (≈ 203 µM) | inactive | 35 µg/mL (≈ 71.8 µM) | – | – | – | – |
| Cc1ccc(-n2cc(Cn3nc(N)c4c(C(F)(F)F)cc(-c5ccccc5)nc43)nn2)cc1 | – | – | inactive | – | inactive | inactive | 98.6 µg/mL (≈ 219 µM) | – |
| Nc1nn(Cc2cn(-c3ccc(O)c([N+](=O)[O-])c3)nn2)c2nc(-c3ccccc3)cc(C(F)(F)F)c12 | – | 41.3 µg/mL (≈ 83.1 µM) | – | – | – | – | 36.2 µg/mL (≈ 73 µM) | 42.3 µg/mL (≈ 85.1 µM) |

Source: ChEMBL document CHEMBL3112418, “Synthesis of novel 1,2,3-triazole tagged pyrazolo[3,4-b]pyridine derivatives and their cytotoxic activity” (Bioorg Med Chem Lett, 2014)
